According to patent publication US8551456B2, “Combination therapy and methods for treating bacterial biofilms” (priority 2010, dated 2013):
“Also recorded” adds a separate entry of the source.

Tests used:
[1] = system: P. aeruginosa wild-type PAO1 biofilms; assay: Combined TMP and antibiotic treatment of biofilms in the dark, CSLM LIVE/DEAD; assay type: cell-based, Pseudomonas aeruginosa; details: for Effect on P. aeruginosa biofilm cells, TMP + Antibiotic, pH 7 / gain in killing by the addition of TMP to the antibiotic / red (dead) staining with antibiotic + TMP versus antibiotic alone (FIGS. 5A and 5B): TMP 225 μM 10 min then antibiotic 100 μg ml^−1 2 h
Experimental: Biofilms were grown on glass slides as described above. […] Slides were incubated in tobramycin for 2 h at 37° C. All incubations were performed in the dark. Cell viability within biofilms was assessed using the LIVE/DEAD BacLight bacterial viability kit and visualized with an Olympus FV1000 CSLM as described above.
Bacterial viability was determined using the LIVE/DEAD BacLight Bacterial Viability assay. The images show horizontal optical sections from the midpoint of the biofilms flanked by vertical optical sections in biofilms treated with panel A showing tobramycin alone and panel B showing TMP+tobramycin.
Using the same protocol used in Example 3 for tobramycin, additional antibiotics were tested to aid in the elucidation of the mechanism of bacterial biofilm disruption in the absence of photoactivation.
Bacterial viability was determined using the LIVE/DEAD BacLight Bacterial Viability assay. Cells staining red are considered dead while cells staining green are alive. […] In summary, panels C, E, G, I, K and M received the respective antibiotic alone, and panels B, D, F, H, J, L and N were treated with the combination of TMP and antibiotic.

[2] = system: P. aeruginosa PAO1 wild-type biofilms; assay: CSLM of static biofilms with LIVE/DEAD BacLight viability assay; assay type: cell-based, Pseudomonas aeruginosa
Experimental: (§1) P. aeruginosa PAO1 wild-type and isogenic pqsA mutant strain were obtained from Eb Pesci (East Carolina University School of Medicine). P. aeruginosa strains were grown aerobically with shaking in Minimal Salts medium (40 mM K2HPO4, 20 mM KH2PO4, 7.6 mM [NH4]2SO4, 0.2 mM MgSO4.7H2O, 9.2×10^−3 mMFeCl3.6H2O, 0.2% [wt/vol] glucose; adjusted pH 7.0) at 37° C. (4, 17). For static biofilms, P. aeruginosa strains were grown overnight in Minimal Salts medium at 37° C. with shaking. The following day, bacteria were diluted in fresh media to an OD590nm of 0.15. Five hundred microliters of the standardized culture was added to sterile polystyrene cuvettes and incubated statically for 24 h at 37° C. For examination of static biofilms using confocal laser scanning microscopy (CSLM), sterile microscope slides were submerged in standardized cell suspensions and incubated statically at 37° C. for 24 h.
(§2) Samples were irradiated for various exposure times at an intensity of 192 Joules/cm^2.
Negative control slides were transferred to 50 ml tubes containing only PBS. […] Bacterial viability was assessed in biofilm cultures using the LIVE/DEAD BacLight bacterial viability assay (Molecular Probes Inc., Eugene, Oreg.), containing SYTO9 and propidium iodide dyes. Biofilms were visualized with an Olympus FV1000 CSLM (Olympus America, Center Valley, Pa.) using a 60× oil immersion objective. Biofilm images were acquired in 0.4 μm optical sections for the entire thickness of the biofilm.
Bacterial viability was determined using the LIVE/DEAD BacLight Bacterial Viability assay. The cells in panels C-F show significant staining in red (considered dead) while cells in panels A, B, G and H show predominate staining in green (alive). […] The few remaining attached cells were nonviable.

S. aureus = details: cited from earlier work
[3] = system: P. aeruginosa pqsA mutant biofilms; assay type: cell-based, Pseudomonas aeruginosa
Experimental: as §1, §2
Negative control slides were transferred to 50 ml tubes containing only PBS. […] Bacterial viability was assessed in biofilm cultures using the LIVE/DEAD BacLight bacterial viability assay (Molecular Probes Inc., Eugene, Oreg.), containing SYTO9 and propidium iodide dyes. […]
Bacterial viability was determined using the LIVE/DEAD BacLight Bacterial Viability assay.

[4] = system: wild-type PAO1 isolates grown in biofilms; details: cited from earlier work
pUCP18 plasmid DNA = assay: TMP induced degradation of plasmid DNA, agarose gel electrophoresis; assay type: biochemical; details: 100 or 225 μM TMP
Experimental: Plasmid DNA with and without TMP was irradiated for designated times. Prior to light exposure, samples of DNA supplemented with TMP were collected and incubated in the dark for comparison. DNA was examined using agarose gel electrophoresis.
The untreated control samples had the three expected forms of plasmid DNA: covalently closed circles, relaxed circular, and linear cut (FIG. 3: lanes 1 and 7). Plasmid DNA exposed to light only appeared similar to the control (FIG. 3: lanes 2 and 8).

[5] = system: P. aeruginosa PAO1 wild-type biofilms; assay: Viable plate counts of cells from static biofilms after TMP and irradiation; assay type: cell-based, Pseudomonas aeruginosa; details: wild-type PAO1, 225 μM TMP, 10 min of irradiation
Experimental: as §1, §2
(§3) Static biofilms formed in sterile polystyrene cuvettes, as described above, were used to quantify cell survival. […] Cells released from the biofilm following treatment were collected from the supernatant by centrifugation and resuspended in PBS. The remaining attached biofilm was washed once and resuspended in PBS. The number of viable cells in the supernatant and attached biofilms following treatment were determined by plating on LB (1.5% agar) plates that were incubated for 24 h at 37° C.
(§4) Cells were collected from the supernatant of treated biofilms, as well as from the remaining attached biofilm. Cell suspensions were diluted and plated onto LB (1.5% agar) plates and incubated 24 h at 37° C. CFU were used to determine the surviving fraction. […] The recovered supernatants contained the cells sloughed off as the result of TPM exposure and irradiation.

[6] = system: P. aeruginosa pqsA mutant biofilms; assay: as above; assay type: cell-based, Pseudomonas aeruginosa; details: 225 μM TMP, irradiated 10 min
Experimental: as §1, §2, §3, §4

[7] = system: extracellular DNA in P. aeruginosa wild-type biofilms; assay: Quantification of extracellular biofilm DNA with DNA stains such as Pico Green; assay type: cell-based, Pseudomonas aeruginosa; details: data not shown, possible competition of TMP with Pico Green
[8] = system: P. aeruginosa PAO1 planktonic cell populations; details: TMP 2.5 mg ml^−1; cited from earlier work

NC[C@H]1O[C@H](O[C@H]2[C@H](O)[C@@H](O[C@H]3O[C@H](CO)[C@@H](O)[C@H](N)[C@H]3O)[C@H](N)C[C@@H]2N)[C@H](O)[C@@H](O)[C@@H]1O [kanamycin]
Effect on P. aeruginosa biofilm cells, TMP + Antibiotic, pH 7 ([1]; dark): +

O=C(O)c1cn(C2CC2)c2cc(N3CCNCC3)c(F)cc2c1=O [Ciprofloxacin]
gain in killing by the addition of TMP to the antibiotic ([1]; dark): no gain in killing | red (dead) staining with antibiotic + TMP versus antibiotic alone (FIGS. 5A and 5B) ([1]; dark): little or no increase in red staining | Effect on P. aeruginosa biofilm cells, TMP + Antibiotic, pH 7 ([1]; dark): +

CC1(C)S[C@@H]2[C@H](NC(=O)C(C(=O)O)c3ccccc3)C(=O)N2[C@H]1C(=O)O (stereo partly drawn) [carbenicillin]
gain in killing by the addition of TMP to the antibiotic ([1]; dark): no enhanced killing | red (dead) staining with antibiotic + TMP versus antibiotic alone (FIGS. 5A and 5B) ([1]; dark): little or no increase in red staining | Effect on P. aeruginosa biofilm cells, TMP + Antibiotic, pH 7 ([1]; dark): −

NC[C@H]1O[C@H](O[C@H]2[C@H](O)[C@@H](O[C@H]3O[C@H](CO)[C@@H](O)[C@H](N)[C@H]3O)[C@H](N)C[C@@H]2N)[C@H](N)C[C@@H]1O [tobramycin]
cell viability and biofilm clearance, TMP then antibiotic ([1]; TMP 225 μM 10 min then tobramycin 100 μg ml^−1 2 h, dark): predominate amount of cells staining red (dead); also recorded: substantial clearance of the biofilms and greater loss of cell viability throughout the biofilms than with either single treatment; also recorded: significant biofilm clearance and enhanced killing of cells | effect of pH on the combination of tobramycin and TMP ([1]; dark conditions, pH range of 4.0 to 8.0): enhancement of killing | cell viability and biofilm clearance, antibiotic alone ([1]; tobramycin alone 100 μg ml^−1, 2 h, dark, no TMP): cells predominately staining green (alive); also recorded: reduction in cell viability which was limited to cells near the surface of the biofilms; also recorded: did not result in substantial biofilm clearance and led to minimal killing of biofilm associated cells

CN[C@H](CC(C)C)C(=O)N[C@H]1C(=O)N[C@@H](CC(N)=O)C(=O)N[C@H]2C(=O)N[C@H]3C(=O)N[C@H](C(=O)N[C@H](C(=O)O)c4cc(O)cc(O)c4-c4cc3ccc4O)[C@H](O)c3ccc(c(Cl)c3)Oc3cc2cc(c3O[C@@H]2O[C@H](CO)[C@@H](O)[C@H](O)[C@H]2O[C@H]2C[C@](C)(N)[C@H](O)[C@H](C)O2)Oc2ccc(cc2Cl)[C@H]1O [vancomycin]
gain in killing by the addition of TMP to the antibiotic ([1]; dark): substantially enhanced killing | red (dead) staining with antibiotic + TMP versus antibiotic alone (FIGS. 5A and 5B) ([1]; dark): predominately red staining

C[n+]1ccc(-c2c3nc(c(-c4cc[n+](C)cc4)c4ccc([nH]4)c(-c4cc[n+](C)cc4)c4nc(c(-c5cc[n+](C)cc5)c5ccc2[nH]5)C=C4)C=C3)cc1.Cc1ccc(S(=O)(=O)[O-])cc1.Cc1ccc(S(=O)(=O)[O-])cc1.Cc1ccc(S(=O)(=O)[O-])cc1.Cc1ccc(S(=O)(=O)[O-])cc1 [TMP, 5,10,15,20-tetrakis(1-methyl-pyridino)-21H,23H-porphine, tetra-p-tosylate salt]
biofilm density and cell viability (CSLM, LIVE/DEAD) ([2]; wild-type PAO1, 100 μM TMP, irradiated 10 min): decrease in biofilm density and the majority of cells within the biofilm were non-viable | biofilm disruption and clearance (CSLM, LIVE/DEAD) ([2]; wild-type PAO1, 225 μM TMP, 10 min of irradiation): nearly complete disruption and clearance; also recorded: completely disrupted with few cells remaining attached | biofilm structure and cell viability without photoactivation (dark toxicity) ([2]; wild-type PAO1, 225 μM TMP, dark): expanded in volume without a loss of cell viability; also recorded: no dark toxicity; also recorded: did not lead to clearance of wild-type biofilms | S. aureus survival (S. aureus; TMP alone): reduce S. aureus survival | effect on established S. aureus biofilms (S. aureus; TMP combined with vancomycin): disrupt established biofilms | cell viability and biofilm architecture without photoactivation ([3]; 225 μM TMP, dark): did not affect cell viability or disrupt the architecture | cell viability of attached cells (CSLM, LIVE/DEAD) ([3]; 100 or 225 μM TMP, irradiated 10 min): decrease in cell viability of attached cells; also recorded: high levels of killing | reduction of wild-type PAO1 isolates grown in biofilms ([4]; TMP 5.0 mg ml^−1, irradiated for 5 min): 1.2 log10 | TMP concentration necessary to achieve the same level of killing in bacteria enmeshed within biofilms ([4]; same level of killing as planktonic (>10^2 cfu ml^−1)): 5.0 mg/mL | degradation of plasmid DNA (pUCP18 plasmid DNA; irradiation for 5 or 30 min): complete degradation | migration of plasmid DNA in gel without photoactivation (pUCP18 plasmid DNA; nonirradiated): retarded migration of DNA; also recorded: migration was retarded | decrease in viable cells in the attached biofilm population ([5]; attached cells): 4.1 log10 | reduction in the number of viable cells in the recovered supernatants ([5]; supernatant cells): 4.5 log10 | decrease in cell viability of attached cells ([6]; attached cells): 3.9 log10 | reduction in cell viability of cells collected from supernatants ([6]; supernatant cells): 4.2 log10 | toxicity to human fibroblasts (human fibroblasts): does not appear to be toxic to human fibroblasts | biofilm DNA after TMP and light ([7]; TMP and light): decrease was observed in biofilm DNA | biofilm DNA after TMP in the absence of light ([7]; TMP, no light): decrease in biofilm DNA | reduction of planktonic cell populations [8]: > 10^2 cfu ml^−1

gentamicin
gain in killing by the addition of TMP to the antibiotic ([1]; dark): behaved similarly to tobramycin | red (dead) staining with antibiotic + TMP versus antibiotic alone (FIGS. 5A and 5B) ([1]; dark): significant increased red staining
